Measured values reported in patent US20090093011A1, “Biosensors for ligand-directed functional selectivity” (priority 2007, published 2009).
pEC50: −log10 of the molar value. “Also recorded” adds a separate entry of the source. Read-outs that look alike come from different tables or passages of the source.

Assays:
β2AR [1] = molecular target: T1, β2AR (Homo sapiens, UniProt P07550); details: binding affinity reference value from literature sources; cited from earlier work
β2AR [2] = molecular target: T1, β2AR; experiment: Ligand-induced DMR signal, RWG biosensor, quiescent A431 cells; type: cell-based; set-up: A431 cells endogenously express large numbers of the β2AR; endogenous in cells; host or cells: A431 (human epidermoid carcinoma), quiescent; details: for pEC50: DMR response at assay time of 50 min; for t1/2: P-DMR event, single phase exponential association fit; for N-DMR (pm): amplitude of N-DMR event; for P-DMR (pm): amplitude of P-DMR event; for t1/2 of the P-DMR event: one-phase exponential association; for type of DMR signal induced by the ligand alone: saturating concentration, quiescent A431 cells; for transition time (τ in seconds): time for the P-DMR event to occur; for t1/2 of single-phase exponential decay of EC50 with assay time: EC50 as a function of assay time (FIG. 3c)
Experimental: Cell culture—Human epidermoid carcinoma A431 cells (American Type Cell Culture) were grown in Dulbecco's modified Eagle's medium (DMEM) supplemented with 10% fetal bovine serum (FBS), 4.5 g/liter glucose, 2 mM glutamine, and antibiotics. About 1.8×10^4 cells at passage 3 to 8 suspended in 50 μL the DMEM medium containing 10% FBS were placed in each well of a 384-well microplate, and were cultured at 37° C. under air/5% CO2 for about 1 day, followed by about 20 hr starvation through continuously culturing in the serum-free DMEM.
Optical biosensor system and cell assays—A Corning® Epic® wavelength interrogation system with an on-board liquid handling system was used. The system is standalone and consists of a temperature-control unit, an optical detection unit, and an on-board liquid handling unit with robotics. The temperature-control unit minimizes temperature fluctuations, if any. Inside this unit, there are two side-by-side stacks for holding both the sensor microplates and compound source plates. Once stable temperature is reached (typically within 1 hr), a sensor microplate is transferred by the robotics into the plate holder right above the detection system, while a source plate is moved to an appropriate compartment so that it is readily addressable by the on-board liquid handling unit.
The detection unit has integrated fiber optics to measure the wavelength shift of the resonant lights due to ligand-induced dynamic mass redistribution in living cells. A broadband white light source centered on 830 nm, generated through a fiber optic and a collimating lens at nominally normal incidence through the bottom of the microplate, is used to illuminate a small region of the grating surface. A detection fiber for recording the reflected light is bundled with the illumination fiber. A series of illumination/detection heads are arranged in a linear fashion, so that reflection spectra are collected from the 16-wells within the same column of a 384 well microplate at once.
(§1) For kinetic assays, the cells were washed with HBSS (Hanks Balanced Salt Solution with 20 mM HEPES) buffer. After 1 hour incubation within the detection system, the sensor plate was scanned and a baseline response was recorded. Then, compound solutions were transferred into the sensor plate using the on-board liquid handling system, and the cell responses were then recorded for another period of time. The lid of the sensor microplates was on throughout the assay, except of a short period of time (about 1 min.) when the compounds were introduced. The plate lid was handled automatically by the robotics. All studies were carried out at controlled temperature (28° C.).
Statistical analysis—Unless specifically mentioned, three replicates were carried out for each measurement or each compound. The standard deviation was derived from these measurements (n=3). […] All dose-dependent responses were analyzed using non-linear regression method with Prism software (available from Graph Pad).
Ligand-specific DMR signals—β2AR in A431 cells were selected as a model system for assaying ligand-directed functional selectivity, because of well-established signaling pathways of the β2AR in A431 as well as the availability of a rich source of structurally similar ligands having wide spectrum of efficacies. A431 cells endogenously express large numbers of the β2AR (about 34,000 copies per cells). To examine the functional selectivity of β2AR ligands, we used RWG biosensor to follow change in local mass density or distribution as a function of time upon stimulation with a saturating concentration of a ligand. The RWG biosensor detects an integrated response, termed as dynamic mass redistribution (DMR) signal, mediated through ligand-induced activation of the β2AR. The DMR signal approximates a global representation of the receptor activation and signaling, particularly for signaling events associated with dynamic relocation of cellular matters at or near the sensor surface.

dynamin = details: 2 nM epinephrine after pretreatment with 25 μM DIPC
Excerpt: Although not bound by theory, a receptor internalization process is believed to result in a loss in local mass density or distribution within the sensing volume of the biosensor, leading to a negative contribution to the overall response. Since dynamin is known to play an important role in the ligand-induced β2AR internalization, we examined the effect of inhibiting dynamin activity on the ligand responses.

β2AR [3] = molecular target: T1, β2AR; details: βARK- and PKA-mediated phosphorylation; cited from earlier work
β2AR [4] = molecular target: T1, β2AR; experiment: Catechol co-stimulation of β2AR ligand-induced DMR signals in A431 cells; type: cell-based; set-up: A431 cells endogenously express large numbers of the β2AR; endogenous in cells; host or cells: A431 (human epidermoid carcinoma), quiescent; details: catechol of 500 μM; pindolol of 10 nM, epinephrine of 100 nM
Excerpt: The ability of catechol to modulate the DMR signals induced by other ligands was examined. […] In embodiments the signaling of 600 or 610 can be completely separated, or can partially overlap.

β2AR [5] = molecular target: T1, β2AR; details: dopamine of <100 μM; antagonist 1 μM
Experimental: as §1

T1 sequence (P07550 whole entry): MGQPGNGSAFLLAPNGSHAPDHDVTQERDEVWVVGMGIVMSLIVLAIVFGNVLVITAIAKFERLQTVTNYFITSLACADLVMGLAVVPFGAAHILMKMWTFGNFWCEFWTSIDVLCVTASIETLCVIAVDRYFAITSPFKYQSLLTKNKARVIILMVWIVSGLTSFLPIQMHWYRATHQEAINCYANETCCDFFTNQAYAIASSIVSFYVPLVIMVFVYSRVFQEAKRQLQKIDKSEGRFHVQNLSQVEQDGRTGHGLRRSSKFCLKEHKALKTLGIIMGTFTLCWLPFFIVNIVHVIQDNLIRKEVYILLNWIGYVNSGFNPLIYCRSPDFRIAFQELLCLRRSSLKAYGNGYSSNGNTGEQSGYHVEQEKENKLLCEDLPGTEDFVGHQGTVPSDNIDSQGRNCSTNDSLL

SMILES	t1/2 (β2AR [2])	N-DMR (pm) (β2AR [2])	P-DMR (pm) (β2AR [2])	maximal amplitude of the P-DMR event, normalized to the epinephrine response (β2AR [2]; n=16)	t1/2 of the P-DMR event (β2AR [2])	type of DMR signal induced by the ligand alone (β2AR [2])	transition time (τ in seconds) (β2AR [2])	other results
Oc1ccccc1O [catechol]	4.82 ± 0.7 min	0 ± 3 pm	152 ± 13 pm	66%	about 289 s	initial steady phase (termed as net-zero DMR) with a short duration, and a succeeding P-DMR	130 ± 15 s	−logKi (ref.) (β2AR [1]): 3.80(3); transition time (τ) (β2AR [2]): about 140 sec; pEC50 (β2AR [2]): 3.30
O=C(NCCNCC(O)COc1ccc(O)cc1)N1CCOCC1 (centres unmarked) [xamoterol]	16.2 ± 2.5 min	0 ± 5 pm	75 ± 18 pm	–	about 974 s	initial steady phase (termed as net-zero DMR) with a short duration, and a succeeding P-DMR	260 ± 26 s	–
NCCc1ccc(O)cc1 [tyramine]	–	–	–	–	–	complicated DMR signal	–	–
NCCc1ccc(O)c(O)c1 [dopamine]	8 ± 0.383 min	31 ± 4 pm	214 ± 32 pm	–	about 480 s	biphasic response	252 ± 15 s	–
CNC[C@H](O)c1ccc(O)c(O)c1 [epinephrine]	8.68 ± 0.417 min	37 ± 7 pm	232 ± 12 pm	100%	–	biphasic response	132 ± 20 s	t1/2 for the P-DMR event (dynamin): about 200 seconds; transition time (τ) (dynamin): about 120 sec; kobs of receptor phosphorylation (β2AR [3]): about 20 sec; transition time (τ) (β2AR [2]): about 140 sec; t1/2 of single-phase exponential decay of EC50 with assay time (β2AR [2]): about 203 sec; duration of initial N-DMR (β2AR [2]; epinephrine response, FIG. 1): about 130 sec; duration of subsequent P-DMR (β2AR [2]; epinephrine response, FIG. 1): > 10 min; DMR signal on co-stimulation with catechol compared with individual signals (β2AR [4]): almost identical to that induced by 100 nM epinephrine alone
CNCC(O)c1ccccc1 (centres unmarked) [halostachine]	–	–	–	–	–	–	–	−logKi (ref.) (β2AR [1]): 5.08(3); maximal amplitude of the P-DMR event, normalized to the epinephrine response (β2AR [2]): 90%; pEC50 (β2AR [2]): 4.63
CC(C)NCC(O)COc1cccc2[nH]ccc12 (centres unmarked) [pindolol]	8.6 ± 0.783 min	0 ± 4 pm	142 ± 19 pm	61%	–	initial steady phase (termed as net-zero DMR) with a short duration, and a succeeding P-DMR	250 ± 15 s	DMR signal on co-stimulation with catechol compared with individual signals (β2AR [4]): closely resembled, but was not identical to, the sum of the two DMR signals; also recorded: close to the sum of the two DMR signals obtained individually
NCCc1ccccc1 [phenylethylamine]	–	–	–	–	–	complicated DMR signal	–	–
O=C(CCCN1CCC2(CC1)C(=O)NCN2c1ccccc1)c1ccc(F)cc1 [spiperone]	–	–	–	–	–	–	–	inhibition of the dopamine response (β2AR [5]): neither 1 μM SCH 23390 nor 1 μM spiperone
NC[C@H](O)c1ccc(O)c(O)c1 [norepinephrine]	9.32 ± 0.25 min	29 ± 5 pm	209 ± 16 pm	91%	–	biphasic response	180 ± 17 s	t1/2 of single-phase exponential decay of EC50 with assay time (β2AR [2]): about 248 sec
